The numbers were not newly measured in patent US20110256530A1, “PRODUCTS AND METHODS FOR TISSUE PRESERVATION” (GenVault Corporation, priority 2010, published 2011), which cites them from elsewhere.

The conditions of data set [1]: charge state, pH 7, literature references (30)-(33).
Data set [2] relates to nucleases. The following applies: Table I, description in words.
The conditions of data set [3]: 25° C.
The subject of data set [4] is ribonucleases.

With `Cn1cncc1C[C@H](NC(=O)CCN)C(=O)O` [Anserine, Anserine (Alanine-methyl-histidine)], the “Useful Chemical Properties” value in data set [1] is listed as “Cation at pH 7 (32)”.

In the case of `O=C(O)CN(CCN(CC(=O)O)CC(=O)O)CC(=O)O` [EDTA], the Activity entry in data set [2] is on record as “Divalent Chelator, Inhibitor”.

Take `N[C@@H](Cc1c[nH]cn1)C(=O)O` [Histidine]: the “Useful Chemical Properties” value in data set [1] is on record as “Neutral zwitterions”.

Take `OC[C@@H](O)[C@@H](O)[C@H](O)[C@H](O)CO` [Mannitol]: in data set [1], the “Useful Chemical Properties” value is on record as “Neutral (31)”.

Consider `C=O` [formalin, methylene glycol], for which the “permeation through tissue block” value in data set [3] is “about 1 mm of tissue block per hour”.

As to “Aurinetricarboxylic Acid [Aurinetricarboxylic Acid (ATA)n]”, the Activity entry in data set [2] is “derivative, broad spectrum”.

“Uridine-Vanadate [Uridine-Vanadate U-V04]”: the Activity entry in data set [2] is “RNase specific Inhibitor”.

B1: RI: Large (~450 residues, ~49 kDa), acidic leucine-rich repeat protein that binds ribonucleases (protein, UniProt P13489 2-461, looked up)
Ribonuclease inhibitor: SLDIQSLDIQCEELSDARWAELLPLLQQCQVVRLDDCGLTEARCKDISSALRVNPALAELNLRSNELGDVGVHCVLQGLQTPSCKIQKLSLQNCCLTGAGCGVLSSTLRTLPTLQELHLSDNLLGDAGLQLLCEGLLDPQCRLEKLQLEYCSLSAASCEPLASVLRAKPDFKELTVSNNDINEAGVRVLCQGLKDSPCQLEALKLESCGVTSDNCRDLCGIVASKASLRELALGSNKLGDVGMAELCPGLLHPSSRLRTLWIWECGITAKGCGDLCRVLRAKESLKELSLAGNELGDEGARLLCETLLEPGCQLESLWVKSCSFTAACCSHFSSVLAQNRFLLELQISNNRLEDAGVRELCQGLGQPGSVLRVLWLADCDVSDSSCSSLAATLLANHSLRELDLSNNCLGDAGILQLVESVRQPGCLLEQLVLYDIYWSEEMEDRLQALEKDKPSLRVIS
On to B1, for which the “complexes with certain ribonucleases” value in data set [4] was “extremely tight complexes”.
